{"source": "patent US11549199B2", "about": "“Active apparel and fabric and coverings” (priority 2017, dated 2023)", "origin": "cited, not measured here", "test_system": "gram-positive and gram-negative bacteria"}
{"substance": "Poly-hexamethylene biguanide (PHMB) hydrochloride", "values": [{"measurement": "activity against gram-positive and gram-negative bacteria", "result": "active"}]}
